1 compound from patent US10975083B2, “Blood-brain barrier-penetrant dopamine-β-hydroxylase inhibitors” (BIAL—PORTELA & Cᵃ, S.A., priority 2016, dated 2021) can be followed below.

Marks after values point to notes of the source that are not given here.

This assay addresses T1, Dopamine beta hydroxylase (Homo sapiens, UniProt P09172).
T1 construct: Human plasma samples were obtained from healthy donors; tissue Instituto Portugues do Sangue Transplantacao, Porto; host or cells: human plasma from healthy donors
T1 sequence (P09172 40-617 limits assumed): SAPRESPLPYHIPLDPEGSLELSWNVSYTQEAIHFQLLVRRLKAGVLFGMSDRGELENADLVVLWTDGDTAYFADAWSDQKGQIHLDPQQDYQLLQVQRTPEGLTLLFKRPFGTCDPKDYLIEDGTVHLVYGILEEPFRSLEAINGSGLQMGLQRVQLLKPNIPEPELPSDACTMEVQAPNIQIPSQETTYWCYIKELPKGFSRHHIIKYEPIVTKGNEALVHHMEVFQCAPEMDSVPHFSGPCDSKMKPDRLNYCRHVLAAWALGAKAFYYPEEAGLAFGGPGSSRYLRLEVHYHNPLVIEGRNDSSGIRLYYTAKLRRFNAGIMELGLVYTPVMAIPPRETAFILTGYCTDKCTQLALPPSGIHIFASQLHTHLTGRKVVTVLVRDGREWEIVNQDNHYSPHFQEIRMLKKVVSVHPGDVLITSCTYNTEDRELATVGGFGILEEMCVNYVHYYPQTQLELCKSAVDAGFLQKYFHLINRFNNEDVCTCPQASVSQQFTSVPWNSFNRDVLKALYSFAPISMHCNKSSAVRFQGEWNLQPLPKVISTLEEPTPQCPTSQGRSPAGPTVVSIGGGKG
In words: DβH activity in human plasma. The following applies: inhibitor 0.1 μM. Format: biochemical. As to the method: Furthermore, the ability of a compound to inhibit DβH activity may be assessed in human plasma using the following assay. […]. Dopamine beta hydroxylase activity in human plasma was measured by the method previously developed (Nagatsu, T. and Udenfriend, S. Photometric assay of dopamine-β-hydroxylase activity in human blood. Clin. Chem. 18(9) 980-983, 1972) with minor modifications. Catalase, N-ethylmaleimide, tyramine, disodium fumarate, pargyline, sodium acetate, ascorbic acid, copper sulfate and octopamine were obtained from Sigma Chemical Co., St. Louis, Mo. 63178. Human plasma samples were obtained from healthy donors (Instituto Portugues do Sangue Transplantacao, Centro Sangue Transplantacao, Porto, Portugal). From date of collection, plasma was stored at −80° C. until use. Test compounds were initially prepared in dimethyl sulfoxide at a concentration of 10 mM and diluted in dimethyl sulfoxide to the required concentrations. […] Absorbance was measured at […] in a 96-well plate by use of a SpectraMAX plus 384 (Molecular Devices) with software SOFTmax® PRO Software 5.3 spectrophotometer. Absorbance was linear with octopamine concentration from 0.5 to 20 μg/ml. Dopamine beta hydroxylase activity is determined as nmol of octopamine formed/ml of plasma/hour and effect of compounds is presented as % control. […]

On to `Cc1[nH]c(=S)n2c1[C@@H]1C[C@]1(c1cc(Br)ccc1F)C2` [Example 122, (5aS,6aR)-5a-(5-bromo-2-fluorophenyl)-1-methyl-5,5a,6,6a-tetrahydrocyclopropa[3,4]pyrrolo[1,2-c]imidazole-3 (2H)-thione], for which the “DβH activity in % of control in human plasma assay (numbers in brackets)” value was “(9.8)* % of Ctrl”.
